Measured values reported in patent US8129368B2, “5,6-dihydro-1H-pyridin-2-one compounds” (priority 2008, dated 2012).
Like-named read-outs stand apart in the source and are kept apart here.

Test system: HCV Huh-luc/neo-ET replicon cells
Assay: Luciferase-Based HCV Replicon Assay (EC50 (1b))
Format: cell-based
Conditions: Hepatitis C virus
Procedure: Luciferase-Based HCV Replicon Assay Protocol (EC50 (1b))
The cell culture component of the assay is performed essentially as described by Bartenschlager et al., Hepatology 2002, 35, 694-703, wherein exponentially growing HCV Huh-luc/neo-ET replicon cells were seeded at 6×10^3 cells/well in 96 well assay plate. 24 hours later the cells were treated with various concentrations of compound or combination of compounds in triplicate using both fixed ratios and checkerboard matrices of test agents and cultured for 72 hours. The luciferase activity in the wells was determined using Bright-Glo reagent (Promega, Madison, Wis.) with a luminometer (Wallac 1420 Multilabel HTS Counter Victor 2). The background control was replicon cells treated with 100 nM BILN-2061, an inhibitor of the HCV protease. % Inhibition was determined for each compound concentration in relation to the negative (no compound) control to calculate the EC50(1b).

[1] = HCV Huh-luc/neo-ET replicon cells, 72 hours, luciferase activity, read-out: EC50 (1b)
[2] = HCV Huh-luc/neo-ET replicon cells, 72 hours, luciferase activity, read-out: EC50(1b) concentration

SMILES	EC50 [1] [nM]	EC50 [2] [nM]	EC50 (Huh-luc/neo-ET, 72 h, read-out: EC50 (1b)) [nM]	EC50 (Huh-luc/neo-ET, 72 h, read-out: EC50(1b) concentration) [nM]
CS(=O)(=O)Nc1ccc2c(c1)S(=O)(=O)NC(C1=C(O)[C@@H]3[C@@H]4CC[C@@H](C4)[C@@H]3N(CC3(C(F)(F)F)CC3)C1=O)=N2 [Example 22, N-{3-[(1S,2S,7R,8R)-6-Hydroxy-4-oxo-3-(1-trifluoromethyl-cyclopropylmethyl)-3-aza-tricyclo[6.2.1.0^2,7]undec-5-en-5-yl]-1,1-dioxo-1,2-dihydro-1λ^6-benzo[1,2,4]thiadiazin-7-yl}-methanesulfonamide]	5 to 25	< 25	–	–
CS(=O)(=O)Nc1ccc2c(c1)S(=O)(=O)NC(C1=C(O)[C@@H]3[C@@H]4CC[C@@H](C4)[C@@H]3N(Cc3ccc(F)c(F)c3)C1=O)=N2 [Example 23, N-{3-[(1S,2S,7R,8R)-3-(3,4-Difluoro-benzyl)-6-hydroxy-4-oxo-3-aza-tricyclo[6.2.1.0^2,7]undec-5-en-5-yl]-1,1-dioxo-1,2-dihydro-1λ^6-benzo[1,2,4]thiadiazin-7-yl}-methanesulfonamide]	–	–	5 to 25	< 25
CS(=O)(=O)Nc1ccc2c(c1)S(=O)(=O)NC(C1=C(O)[C@@H]3[C@H]4CC[C@H](C4)[C@@H]3N(Cc3ccc(F)c(F)c3F)C1=O)=N2 [Example 24, N-{3-[(1R,2S,7R,8S)-6-Hydroxy-4-oxo-3-(2,3,4-trifluoro-benzyl)-3-aza-tricyclo[6.2.1.0^2,7]undec-5-en-5-yl]-1,1-dioxo-1,2-dihydro-1λ^6-benzo[1,2,4]thiadiazin-7-yl}-methanesulfonamide]	5 to 25	< 25	–	–
CS(=O)(=O)Nc1ccc2c(c1)S(=O)(=O)NC(C1=C(O)[C@@H]3[C@H]4CC[C@H](C4)[C@@H]3N(Cc3ccsc3)C1=O)=N2 [Example 25, N-{3-[(1R,2S,7R,8S)-6-Hydroxy-4-oxo-3-thiophen-3-ylmethyl-3-aza-tricyclo[6.2.1.0^2,7]undec-5-en-5-yl]-1,1-dioxo-1,2-dihydro-1λ^6-benzo[1,2,4]thiadiazin-7-yl}-methanesulfonamide]	5 to 25	< 25	–	–
CS(=O)(=O)Nc1ccc2c(c1)S(=O)(=O)NC(C1=C(O)[C@@H]3C4CCC(CC4)[C@@H]3N(Cc3cc(F)c(F)cc3F)C1=O)=N2 [Example 26]	5 to 25	< 25	–	–
CS(=O)(=O)Nc1ccc2c(c1)S(=O)(=O)NC(C1=C(O)[C@@H]3[C@H]4CC[C@H](C4)[C@@H]3N(Cc3cccs3)C1=O)=N2 [Example 27, N-{3-[(1R,2S,7R,8S)-6-Hydroxy-4-oxo-3-thiophen-2-ylmethyl-3-aza-tricyclo[6.2.1.0^2,7]undec-5-en-5-yl]-1,1-dioxo-1,2-dihydro-1λ^6-benzo[1,2,4]thiadiazin-7-yl}-methanesulfonamide]	5 to 25	< 25	–	–
CS(=O)(=O)Nc1ccc2c(c1)S(=O)(=O)NC(C1=C(O)[C@@H]3[C@H]4CC[C@H](C4)[C@@H]3N(CC3CCCCC3)C1=O)=N2 [Example 28]	5 to 25	< 25	–	–
Cc1ccccc1CN1C(=O)C(C2=Nc3ccc(NS(C)(=O)=O)cc3S(=O)(=O)N2)=C(O)[C@@H]2[C@@H]3CC[C@@H](C3)[C@@H]21 [Example 29, N-{3-[(1S,2S,7R,8R)-6-Hydroxy-3-(2-methyl-benzyl)-4-oxo-3-aza-tricyclo[6.2.1.0^2,7]undec-5-en-5-yl]-1,1-dioxo-1,2-dihydro-1λ^6-benzo[1,2,4]thiadiazin-7-yl}-methanesulfonamide]	5 to 25	< 25	–	–
CS(=O)(=O)Nc1ccc2c(c1)S(=O)(=O)NC(C1=C(O)[C@@H]3[C@@H]4CC[C@@H](C4)[C@@H]3N(Cc3cccc(F)c3)C1=O)=N2 [Example 30]	5 to 25	< 25	–	–
